Experiments:
Assay type in all cases: in vivo
corn (Zea mays) [1] = assay: Test A preemergence soil spray, visual injury rating 0-100; settings: 10 days
How it was run: (§1)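 Greenhouse test: loam/sand pots received a surfactant-containing formulation, as a preemergence directed soil spray or a postemergence spray on young plants. Injury was judged visually at day 10 relative to untreated controls.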

kochia (Bassia scoparia) [2] = assay: as above; settings: 10 days
How it was run: as §1

[3] = tested on: palmer (palmer amaranth, palmer pigweed, Amaranthus palmeri); assay: as above; settings: 10 days
How it was run: as §1

[4] = tested on: blackgrass (Alopecurus myosuroides); assay: as above; settings: 10 days
How it was run: as §1

[5] = tested on: barnyardgrass (Echinochloa crus-galli); assay: as above; settings: 10 days
How it was run: as §1

[6] = tested on: green foxtail (Setaria viridis); assay: as above; settings: 10 days
How it was run: as §1

[7] = tested on: ryegrass, Italian (italian ryegrass, Lolium multiflorum); assay: as above; settings: 10 days
How it was run: as §1

[8] = tested on: oat, wild (wild oat, Avena fatua); assay: as above; settings: 10 days
How it was run: as §1

soybean (Glycine max) [9] = assay: as above; settings: 10 days
How it was run: as §1

[10] = tested on: wheat (Triticum aestivum); assay: as above; settings: 10 days
How it was run: as §1

[11] = tested on: ragweed (common ragweed, Ambrosia artemisiifolia); assay: as above; settings: 10 days
How it was run: as §1

corn (Zea mays) [12] = assay: Test A postemergence application, visual injury rating 0-100
How it was run: as §1

kochia (Bassia scoparia) [13] = assay: as above
How it was run: as §1

[14] = tested on: palmer (palmer amaranth, palmer pigweed, Amaranthus palmeri); assay: as above
How it was run: as §1

[15] = tested on: blackgrass (Alopecurus myosuroides); assay: as above
How it was run: as §1

[16] = tested on: barnyardgrass (Echinochloa crus-galli); assay: as above
How it was run: as §1

[17] = tested on: green foxtail (Setaria viridis); assay: as above
How it was run: as §1

[18] = tested on: ryegrass, Italian (italian ryegrass, Lolium multiflorum); assay: as above
How it was run: as §1

[19] = tested on: oat, wild (wild oat, Avena fatua); assay: as above
How it was run: as §1

soybean (Glycine max) [20] = assay: as above
How it was run: as §1

[21] = tested on: wheat (Triticum aestivum); assay: as above
How it was run: as §1

[22] = tested on: horseweed (Erigeron canadensis); assay: as above
How it was run: as §1

[23] = tested on: ragweed (common ragweed, Ambrosia artemisiifolia); assay: as above
How it was run: as §1

[24] = tested on: sedge, umbrella (small-flower umbrella sedge, Cyperus difformis); assay: Test B flooded paddy test, visual plant response rating 0-100; settings: 250 g ai/ha, Flood, applied to paddy water, evaluated after 13 days
How it was run: (§2)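 Visual scores versus untreated controls were recorded 13 days after treatment of greenhouse-held plants. At the 2-leaf stage, pots were flooded 3 cm above the soil surface and compounds added straight to the water.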

[25] = tested on: barnyardgrass (Echinochloa crusgalli); assay: as above; settings: 250 g ai/ha, Flood, applied to paddy water, evaluated after 13 days
How it was run: as §2

rice (Oryza sativa) = assay: as above; settings: 250 g ai/ha, Flood, applied to paddy water, evaluated after 13 days
How it was run: as §2

[26] = tested on: ducksalad (Heteranthera limosa); assay: as above; settings: 250 g ai/ha, Flood, applied to paddy water, evaluated after 13 days
How it was run: as §2

[27] = 62 g ai/ha, 0 = no effect, 100 = complete control
[28] = 62 g ai/ha, postemergence, 10 days, 0 = no effect, 100 = complete control
[29] = Postemergence, 16 g ai/ha, greenhouse 10 days, 0 no effect, 100 complete control

CCOC(=O)C1=CCC(NC(=O)C2(C)CN(c3cc(Cl)cc(Cl)c3)C(=O)O2)C1 (centres unmarked) [Compound 114]
Corn plant response rating (corn (Zea mays) [1]; 16 g ai/ha, 0 to 100 scale): 0 | Corn plant response rating (0-100) (corn (Zea mays) [1]; [27]): 30 | Kochia plant response rating (kochia (Bassia scoparia) [2]; 16 g ai/ha, 0 to 100 scale): 0 | Kochia plant response rating (0-100) (kochia (Bassia scoparia) [2]; [27]): 0 | Pigweed, Palmer plant response rating ([3]; 16 g ai/ha, 0 to 100 scale): 40 | Pigweed, Palmer plant response rating (0-100) [3, 27]: 90 | Blackgrass plant response rating ([4]; 16 g ai/ha, 0 to 100 scale): 0 | Blackgrass plant response rating (0-100) [4, 27]: 20 | Barnyardgrass plant response rating ([5]; 16 g ai/ha, 0 to 100 scale): 0 | Barnyardgrass plant response rating (0-100) [5, 27]: 90 | Foxtail, Green plant response rating ([6]; 16 g ai/ha, 0 to 100 scale): 0 | Foxtail, Green plant response rating (0-100) [6, 27]: 90 | Ryegrass, Italian plant response rating ([7]; 16 g ai/ha, 0 to 100 scale): 0 | Ryegrass, Italian plant response rating (0-100) [7, 27]: 80 | Oat, Wild plant response rating ([8]; 16 g ai/ha, 0 to 100 scale): 0 | Oat, Wild plant response rating (0-100) [8, 27]: 20 | Soybean plant response rating (soybean (Glycine max) [9]; 16 g ai/ha, 0 to 100 scale): 0 | Soybean plant response rating (0-100) (soybean (Glycine max) [9]; [27]): 10 | Wheat plant response rating ([10]; 16 g ai/ha, 0 to 100 scale): 0 | Wheat plant response rating (0-100) [10, 27]: 40 | Ragweed plant response rating ([11]; 16 g ai/ha, 0 to 100 scale): 0 | Ragweed plant response rating (0-100) [11, 27]: 0 | Corn plant response rating (0-100) (corn (Zea mays) [12]; [28]): 100 | Corn plant response rating (0 to 100 scale) (corn (Zea mays) [12]; [29]): 100 | Kochia plant response rating (0-100) (kochia (Bassia scoparia) [13]; [28]): 90 | Kochia plant response rating (0 to 100 scale) (kochia (Bassia scoparia) [13]; [29]): 80 | Pigweed, Palmer plant response rating (0-100) [14, 28]: 90 | Pigweed, Palmer plant response rating (0 to 100 scale) [14, 29]: 90 | Blackgrass plant response rating (0-100) [15, 28]: 80 | Blackgrass plant response rating (0 to 100 scale) [15, 29]: 50 | Barnyardgrass plant response rating (0-100) [16, 28]: 100 | Barnyardgrass plant response rating (0 to 100 scale) [16, 29]: 100 | Foxtail, Green plant response rating (0-100) [17, 28]: 90 | Foxtail, Green plant response rating (0 to 100 scale) [17, 29]: 80 | Ryegrass, Italian plant response rating (0-100) [18, 28]: 80 | Ryegrass, Italian plant response rating (0 to 100 scale) [18, 29]: 50 | Oat, Wild plant response rating (0-100) [19, 28]: 40 | Oat, Wild plant response rating (0 to 100 scale) [19, 29]: 30 | Soybean plant response rating (0-100) (soybean (Glycine max) [20]; [28]): 70 | Soybean plant response rating (0 to 100 scale) (soybean (Glycine max) [20]; [29]): 50 | Wheat plant response rating (0-100) [21, 28]: 90 | Wheat plant response rating (0 to 100 scale) [21, 29]: 80 | Horseweed plant response rating (0-100) [22, 28]: 70 | Horseweed plant response rating (0 to 100 scale) [22, 29]: 20 | Ragweed plant response rating (0-100) [23, 28]: 50 | Ragweed plant response rating (0 to 100 scale) [23, 29]: 10 | Plant response rating, Sedge, Umbrella (0 to 100 scale, 0 is no effect and 100 is complete control) [24]: 98 | Plant response rating, Barnyardgrass (0 to 100 scale, 0 is no effect and 100 is complete control) [25]: 90 | Plant response rating, Rice (0 to 100 scale, 0 is no effect and 100 is complete control) (rice (Oryza sativa)): 55 | Plant response rating, Ducksalad (0 to 100 scale, 0 is no effect and 100 is complete control) [26]: 80

— US20260285850A1, “SUBSTITUTED OXAZOLIDINONES AND IMIDAZOLINONES AS HERBICIDES” (FMC CORPORATION, priority 2023, published 2026)
